Laboratory results published in patent publication US10681909B2, “Herbicidal triazoles” (FMC Corporation, priority 2014, dated 2020).

Legend:
field violet = assay: Test D postemergence; assay type: in vivo, Viola arvensis; conditions: scale 0 to 100
Source text: (§1) Seeds of plant species selected from bluegrass (annual bluegrass, Poa annua), blackgrass (Alopecurus myosuroides), canarygrass (Phalaris minor), chickweed (common chickweed, Stellaria media), galium (catchweed bedstraw, Galium aparine), bromegrass, down (downy bromegrass, Bromus tectorum), Russian thistle (Salsola kali), field poppy (Papaver rhoeas), field violet (Viola arvensis), foxtail, green (green foxtail, Setaria viridis), deadnettle (henbit deadnettle, Lamium amplexicaule), ryegrass, Ital. (Italian ryegrass, Lolium multiflorum), kochia (Kochia scoparia), lambsquarters (Chenopodium album), oilseed rape (Brassica napus), pigweed (Amaranthus retroflexus), chamomile (scentless chamomile, Matricaria inodora), speedwell (bird's-eye speedwell, Veronica persica), barley, spring (spring barley, Hordeum vulgare), wheat, spring (spring wheat, Triticum aestivum), buckwheat, wild (wild buckwheat, Polygonum convolvulus), wild mustard (Sinapis arvensis), oat, wild (wild oat, Avena fatua), radish, wild (wild radish, Raphanus raphanistrum), […]), barley, winter (winter barley, Hordeum vulgare), and wheat, winter (winter wheat, Triticum aestivum) were planted into a silt loam soil and treated preemergence with test chemicals formulated in a non-phytotoxic solvent mixture which included a surfactant. At the same time, these species were planted in pots containing Sunshine Redi-Earth® planting medium comprising spaghnum peat moss, vermiculite, starter nutrients and dolomitic limestone and treated with postemergence applications of the test chemicals formulated in the same manner. Plants ranged in height from 2 to 18 cm (1- to 4-leaf stage). Treated plants and controls were maintained in a controlled growth environment for 14 to 21 d after which time all species were compared to controls and visually evaluated. […] A dash (-) response means no test result.

oilseed rape = assay: Test D postemergence; assay type: in vivo, Brassica napus; conditions: scale 0 to 100
Source text: as §1

oat, wild [1] = assay: Test D postemergence; assay type: in vivo, Avena fatua; conditions: scale 0 to 100
Source text: as §1

buckwheat, wild = assay: Test D postemergence; assay type: in vivo, Polygonum convolvulus; conditions: scale 0 to 100
Source text: as §1

foxtail, green = assay: Test D preemergence; assay type: in vivo, Setaria viridis; conditions: for Plant response rating: Foxtail, Green: scale 0 to 100
Source text: as §1

radish, wild = assay: Test D postemergence; assay type: in vivo, Raphanus raphanistrum; conditions: scale 0 to 100
Source text: as §1

galium = assay: Test A postemergence; assay type: in vivo, Galium aparine; conditions: 0 to 100 scale (0 no effect, 100 complete control), approx. 10 d
Method in brief: (§2)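 Seeds sown in loam soil–sand blend received a directed preemergence soil spray of test chemical in non-phytotoxic solvent with surfactant; postemergence plants, 2 to 10 cm at one- to two-leaf stage, were sprayed with the same formulation. Injury visually rated versus untreated controls after ~10 d in greenhouse, 0–100 scale.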

lambsquarters [2] = assay: Test D postemergence; assay type: in vivo, Chenopodium album; conditions: scale 0 to 100
Source text: as §1

deadnettle = assay: Test D preemergence; assay type: in vivo, Lamium amplexicaule; conditions: for Plant response rating: Deadnettle: scale 0 to 100
Source text: as §1

Russian thistle = assay: Test D preemergence; assay type: in vivo, Salsola kali; conditions: for Plant response rating: Russian Thistle: scale 0 to 100
Source text: as §1

kochia = assay: Test A postemergence; assay type: in vivo, Kochia scoparia; conditions: 0 to 100 scale (0 no effect, 100 complete control), approx. 10 d
Method in brief: as §2

wheat, spring = assay: Test D postemergence; assay type: in vivo, Triticum aestivum; conditions: scale 0 to 100
Source text: as §1

wheat, winter = assay: Test D postemergence; assay type: in vivo, Triticum aestivum; conditions: scale 0 to 100
Source text: as §1

chickweed = assay: Test D preemergence; assay type: in vivo, Stellaria media; conditions: for Plant response rating: Chickweed: scale 0 to 100
Source text: as §1

oat, wild [3] = assay: Test D preemergence; assay type: in vivo, Avena fatua; conditions: for Plant response rating: Oat, Wild: scale 0 to 100
Source text: as §1

speedwell = assay: Test D postemergence; assay type: in vivo, Veronica persica; conditions: scale 0 to 100
Source text: as §1

lambsquarters [4] = assay: Test D preemergence; assay type: in vivo, Chenopodium album; conditions: for Plant response rating: Lambsquarters: scale 0 to 100
Source text: as §1

wild mustard = assay: Test D postemergence; assay type: in vivo, Sinapis arvensis; conditions: scale 0 to 100
Source text: as §1

[5] = 16 g ai/ha, 0 is no effect, 100 is complete control

COc1nc(-c2ccc(Cl)cc2)nn1Cc1ccnc(C(F)(F)F)c1 [Compound 28]
50: Plant response rating: Oat, Wild (oat, wild [1]; 125 g ai/ha) | Plant response rating, Galium (galium; 125 g ai/ha)
30: Plant response rating: Oat, Wild (oat, wild [1]; 16 g ai/ha) | Plant response rating: Oat, Wild (oat, wild [3]; 62 g ai/ha)
40: Plant response rating: Oat, Wild (oat, wild [1]; 31 g ai/ha)
45: Plant response rating: Oat, Wild (oat, wild [1]; 62 g ai/ha)
95: Plant response rating: Buckwheat, Wild (buckwheat, wild; 125 g ai/ha) | Plant response rating: Radish, Wild (radish, wild; 31 g ai/ha) | Plant response rating: Radish, Wild (radish, wild; 62 g ai/ha) | Plant response rating: Lambsquarters (lambsquarters [2]; 125 g ai/ha) | Plant response rating: Deadnettle (deadnettle; 62 g ai/ha) | Plant response rating: Lambsquarters (lambsquarters [4]; 125 g ai/ha)
65: Plant response rating: Oilseed Rape (oilseed rape; 16 g ai/ha) | Plant response rating: Buckwheat, Wild (buckwheat, wild; 31 g ai/ha) | Plant response rating (0 to 100), Chickweed (chickweed; [5])
35: Plant response rating (0 to 100), Oat, Wild (oat, wild [3]; [5]) | Plant response rating: Oat, Wild (oat, wild [3]; 125 g ai/ha)
10: Plant response rating: Wheat, Spring (wheat, spring; 16 g ai/ha)
90: Plant response rating: Lambsquarters (lambsquarters [2]; 31 g ai/ha) | Plant response rating, Kochia (kochia; 125 g ai/ha) | Plant response rating, Kochia (kochia; 500 g ai/ha) | Plant response rating: Chickweed (chickweed; 125 g ai/ha) | Plant response rating: Mustard, Wild (wild mustard; 16 g ai/ha)
70: Plant response rating (0 to 100), Russian Thistle (Russian thistle; [5]) | Plant response rating: Chickweed (chickweed; 31 g ai/ha) | Plant response rating: Chickweed (chickweed; 62 g ai/ha)
15: Plant response rating: Wheat, Spring (wheat, spring; 31 g ai/ha) | Plant response rating: Wheat, Winter (wheat, winter; 16 g ai/ha)
20: Plant response rating (0 to 100), Deadnettle (deadnettle; [5]) | Plant response rating: Wheat, Spring (wheat, spring; 62 g ai/ha) | Plant response rating: Wheat, Winter (wheat, winter; 31 g ai/ha) | Plant response rating: Wheat, Winter (wheat, winter; 125 g ai/ha)
25: Plant response rating: Wheat, Spring (wheat, spring; 125 g ai/ha) | Plant response rating: Wheat, Winter (wheat, winter; 62 g ai/ha)
75: Plant response rating: Field Violet (field violet; 16 g ai/ha) | Plant response rating: Oilseed Rape (oilseed rape; 31 g ai/ha) | Plant response rating: Oilseed Rape (oilseed rape; 62 g ai/ha) | Plant response rating: Buckwheat, Wild (buckwheat, wild; 62 g ai/ha) | Plant response rating: Lambsquarters (lambsquarters [2]; 16 g ai/ha) | Plant response rating: Deadnettle (deadnettle; 31 g ai/ha) | Plant response rating: Speedwell (speedwell; 16 g ai/ha) | Plant response rating: Speedwell (speedwell; 31 g ai/ha) | Plant response rating (0 to 100), Lambsquarters (lambsquarters [4]; [5])
85: Plant response rating: Oilseed Rape (oilseed rape; 125 g ai/ha) | Plant response rating: Foxtail, Green (foxtail, green; 62 g ai/ha) | Plant response rating: Radish, Wild (radish, wild; 16 g ai/ha) | Plant response rating: Lambsquarters (lambsquarters [2]; 62 g ai/ha) | Plant response rating: Russian Thistle (Russian thistle; 62 g ai/ha) | Plant response rating: Russian Thistle (Russian thistle; 125 g ai/ha) | Plant response rating: Speedwell (speedwell; 62 g ai/ha) | Plant response rating: Lambsquarters (lambsquarters [4]; 62 g ai/ha)
100: Plant response rating: Field Violet (field violet; 62 g ai/ha) | Plant response rating: Field Violet (field violet; 125 g ai/ha) | Plant response rating: Foxtail, Green (foxtail, green; 125 g ai/ha) | Plant response rating: Radish, Wild (radish, wild; 125 g ai/ha) | Plant response rating: Deadnettle (deadnettle; 125 g ai/ha) | Plant response rating: Mustard, Wild (wild mustard; 31 g ai/ha) | Plant response rating: Mustard, Wild (wild mustard; 62 g ai/ha) | Plant response rating: Mustard, Wild (wild mustard; 125 g ai/ha)
80: Plant response rating: Field Violet (field violet; 31 g ai/ha) | Plant response rating (0 to 100), Foxtail, Green (foxtail, green; [5]) | Plant response rating, Galium (galium; 500 g ai/ha) | Plant response rating: Speedwell (speedwell; 125 g ai/ha)
60: Plant response rating: Buckwheat, Wild (buckwheat, wild; 16 g ai/ha)
